Source: patent US20170285010A1, “Analytical Methods and Arrays for Use in the Same” (SENZAGEN AB, priority 2014, published 2017)
Like-named read-outs stand apart in the source and are kept apart here.

Tests used:
MUTZ-3 [1] = experiment: GARD Respiratory Prediction Signature (GRPS) SVM classification of the independent test dataset; conditions: for SVM decision value: MUTZ-3, 24 h stimulation at GARD input concentration, 389 GRPS transcripts
Experimental: (§1) The human acute myelomonocytic leukemia cell line MUTZ-3[68,69] was obtained from Leibniz-lnstitut DSMZ-Deutsche Sammlung von Mikroorganismen and Zellkulturen (DSMZ, Braunschweig, Germany). Maintenance of cells, chemical stimulation of MUTZ-3 and all subsequent isolation of mRNA and preparation of cDNA were performed as previously described. In short, a phenotypic control of MUTZ-3 was performed using flow cytometry prior to chemical stimulation to ensure cells were in an immature state. The following FITC-conjugated mouse monoclonal antibodies (mAbs) were used: CD1a (DakoCytomation, Glostrup, Denmark), CD34, CD86, HLA-DR, IgG1 (BD Biosciences, Franklin Lakes, N.J.). The following PE-conjugated mouse monoclonal antibodies were used: CD14 (DakoCytomation), CD54, CD80, IgG1 (BD Biosciences). Cell viability was determined using Propidium Iodide (BD Biosciences) staining. Samples were run on FACSCanto II instrument. Data was acquired using FACS Diva software (BD Biosciences) and analyzed using FCS Express V4 (De Novo Software, Los Angeles, Calif.). Gating was performed to exclude cell debris and non-viable cells based on forward- and side-scattering properties and quadrants established using isotype-controls. During chemical exposure, cells were seeded at 200.000 cells/ml in 24-well plates and exposed to chemical compound at the GARD input concentration. Stimulated cells were harvested after 24 h incubation at 37° C., 5% CO2 and RNA was isolated with TRIzol® reagent (Life Technologies, Carlsbad, Calif.) using standardized protocols provided by the manufacturer. In parallel, a control of the maturity state of the cells was performed by flow cytometric analysis of CD86. Preparation of cDNA and hybridization, washing and scanning of the Human Gene 1.0 ST Arrays (Affymetrix, Santa Clara, Calif., USA) was performed, according to standardized protocols provided by the manufacturer (Affymetrix).
Gene expression data obtained from the Human Gene 1.0 ST Arrays were normalized using the Single-Channel array normalization (SCAN) algorithm, and potential batch effects between different set of experiments were adjusted using the ComBat empirical bayes method. Normalizations and batch adjustments were performed in R statistical software using the open software Bioconductor v2.14 [73] with the additional software packages SCAN.UPC [70] and sva . Normalized data was imported into Qlucore Omics Explorer 3.0 (Qlucore AB, Lund, Sweden) and visualized using Principal Component Analysis (PCA). Predictors were selected from a one-way ANOVA p-value filtration, using false discovery rate (FDR) to adjust for multiple hypothesis testing, comparing respiratory sensitizers and non-respiratory sensitizers. […] The Backward Elimination algorithm was modified to minimize the Kullback-Leibler error [53] rather than maximizing the Area Under the Receiver Operating Characteristic (AUC ROC), in order to enable signature optimization in cases where the AUC ROC reaches 1.0. […] The script for Backwards Elimination was programmed in R, with the additional package e1071 [78]. The method by which the predictive genomic biomarker signature was established was validated using cross-validation based on Support Vector Machines (SVM), based on a linear kernel, as described previously. In short, the training dataset was randomly divided into a new cross-validation training dataset comprising 70% of the stimulations, and a cross-validation test dataset comprising 30% of the stimulations. In addition, care was taken to maintain the same proportion between respiratory sensitizers and non-respiratory sensitizers as in the complete training dataset. A new predictive genomic biomarker signature was identified from the cross-validation training dataset using one-way ANOVA p-value filtration as described above.

MUTZ-3 [2] = experiment: Chemical cytotoxicity, Rv90 (90% relative viability), propidium iodide staining
Source text: A panel of 32 reference chemicals comprising a selection of 10 well characterized respiratory sensitizers and 22 non-respiratory sensitizers, collectively termed the training dataset, were used for cell stimulations in order to establish the predictive genomic biomarker signature. […] Additionally, a panel of 25 chemicals, including 6 respiratory sensitizers and 19 non-respiratory sensitizers, collectively termed the independent test dataset, were used for cell stimulations in order to form an independent testset for validation of the identified predictive genomic biomarker signature. The independent training dataset comprised both control chemicals, included during the training of the model, as well as chemicals previously unseen during training of the model. […] All chemicals were purchased from Sigma-Aldrich (St. Louis, Mo., USA). Chemicals were dissolved and diluted into GARD input concentration in either water or DMSO prior to stimulation of cells. For chemicals dissolved in DMSO, the in-well concentration of DMSO was 0.1%. Monitoring of chemical cytotoxicity and establishment of GARD input concentration for each chemical compound was performed as previously described. […] Toxic compounds were used at a concentration yielding 90% relative viability (Rv90). The criterion that was first met determined the GARD input concentration for each compound.
as §1

CD86 = CD86 expression of MUTZ-3 cells following chemical stimulation (flow cytometry); type: cell-based, human; conditions: MUTZ-3, 24 h stimulation, compared with vehicle/unstimulated cells, student's t-test p<0.05
Experimental: CD86 expression of MUTZ-3 cells following chemical stimulations. […] Statistical significance was determined by student's t-test, comparing each stimulation with its corresponding vehicle, with p<0.05 indicated by *.
Maintenance of cells, chemical stimulation of MUTZ-3 and all subsequent isolation of mRNA and preparation of cDNA were performed as previously described [41,42]. In short, a phenotypic control of MUTZ-3 was performed using flow cytometry prior to chemical stimulation to ensure cells were in an immature state. The following FITC-conjugated mouse monoclonal antibodies (mAbs) were used: CD1a (DakoCytomation, Glostrup, Denmark), CD34, CD86, HLA-DR, IgG1 (BD Biosciences, Franklin Lakes, N.J.). The following PE-conjugated mouse monoclonal antibodies were used: CD14 (DakoCytomation), CD54, CD80, IgG1 (BD Biosciences). Cell viability was determined using Propidium Iodide (BD Biosciences) staining. Samples were run on FACSCanto II instrument. Data was acquired using FACS Diva software (BD Biosciences) and analyzed using FCS Express V4 (De Novo Software, Los Angeles, Calif.). Gating was performed to exclude cell debris and non-viable cells based on forward- and side-scattering properties and quadrants established using isotype-controls. During chemical exposure, cells were seeded at 200.000 cells/ml in 24-well plates and exposed to chemical compound at the GARD input concentration. Stimulated cells were harvested after 24 h incubation at 37° C., 5% CO2 and RNA was isolated with TRIzol® reagent (Life Technologies, Carlsbad, Calif.) using standardized protocols provided by the manufacturer. In parallel, a control of the maturity state of the cells was performed by flow cytometric analysis of CD86.
Prior to chemical challenge, cells were quality controlled by measuring the cellular expression of common myeloid and dendritic cell markers using flow cytometry. These markers included CD1a, CD14, CD34, CD54, CD80, CD86 and HLA-DR.

[3] = Max solubility of chemicals for establishing the GARD input concentration
[4] = occupational asthma and allergic contact dermatitis, ref. [64]; cited from earlier work
[5] = concentration yielding 90% relative viability, MUTZ-3, Table 2
[6] = respiratory sensitizer if any replicate stimulation has SVM decision value >0
[7] = concentration yielding 90% relative viability, MUTZ-3, Table 1
[8] = reference compounds used during assay development (Table 1)

Structure (SMILES) | Classification Pos if 1 sample >0 (MUTZ-3 [1]) | SVM decision value (MUTZ-3 [1]; replicate 1) | SVM decision value (MUTZ-3 [1]; replicate 2) | SVM decision value (MUTZ-3 [1]; replicate 3) | further results
CCCCO [1-Butanol] | Sensitizer (key: Sensitizer: classified as a respiratory sensitizer if any of replicate stimulations have a SVM decision value > 0) | −0.32 | 0.12 |  | 
O=[N+]([O-])c1ccc(Cl)c([N+](=O)[O-])c1 [2,4-dinitrochlorobenzene] |  | −1.66 | −1.18 | −1.90 | Rv90 (MUTZ-3 [2]; [5]): 4 µM; Classification Pos if 1 sample >0 (MUTZ-3 [1]; [6]): Non-sensitizer
Nc1ccccc1O [2-Aminophenol] |  |  |  |  | Rv90 (MUTZ-3 [2]; [7]): 100 µM; Chemically induced up-regulation of CD86 (CD86): up-regulation of CD86 was also observed
C=CC(=O)OCCO [2-Hydroxyethyl acrylate] |  |  |  |  | Rv90 (MUTZ-3 [2]; [7]): 100 µM
Sc1nc2ccccc2s1 [2-mercaptobenzothiazole] |  | −0.44 | −0.43 | −0.57 | 
[Cl][Pt-2]([Cl])([Cl])([Cl])([Cl])[Cl].[NH4+].[NH4+] [Ammonium hexachloroplatinate] |  |  |  |  | Chemically induced up-regulation of CD86 (CD86): statistically significant; Max solubility [3, 8]: 35 µM
O=Cc1ccccc1 [Benzaldehyde] |  | −0.79 | −0.87 | −0.70 | Classification Pos if 1 sample >0 (MUTZ-3 [1]; [6]): Non-sensitizer
Cc1ccc(S(=O)(=O)[N-]Cl)cc1.[Na+] [Chloramine T] |  | 0.52 | 0.59 |  | Classification Pos if 1 sample >0 (MUTZ-3 [1]; [6]): Sensitizer (classified as a respiratory sensitizer if any of replicate stimulations have a SVM decision value > 0)
Clc1ccccc1 [Chlorobenzene] |  | −1.03 | −0.76 | −1.15 | SVM decision value (MUTZ-3 [1]; replicate 4): 0.24; SVM decision value (MUTZ-3 [1]; replicate 5): 0.06; Classification Pos if 1 sample >0 (MUTZ-3 [1]; [6]): Sensitizer (classified as a respiratory sensitizer if any of replicate stimulations have a SVM decision value > 0)
OCC=Cc1ccccc1 [Cinnamyl alcohol] | Non-sensitizer | −0.57 | −1.44 | −1.26 | 
CCOC(=O)c1ccccc1C(=O)OCC [Diethyl phthalate] |  | −1.37 | −0.96 | −1.22 | Classification Pos if 1 sample >0 (MUTZ-3 [1]; [6]): Non-sensitizer
C=CCc1ccc(O)c(OC)c1 [Eugenol] | Non-sensitizer | −1.67 | −1.53 | −1.51 | Rv90 (MUTZ-3 [2]; human): 300 µM
C=O [Formaldehyde] |  |  |  |  | Rv90 (MUTZ-3 [2]; human): 80 µM
O=CCCCC=O [Glutaraldehyde] |  |  |  |  | Rv90 (MUTZ-3 [2]; human): 10 µM; Chemically induced up-regulation of CD86 (CD86): statistically significant
OCC(O)CO [Glycerol] | Non-sensitizer | −1.05 | −1.11 | −0.77 | 
O=CC=O [Glyoxal] |  | −1.02 | −0.69 | −0.56 | Rv90 (MUTZ-3 [2]; [5]): 300 µM; Classification Pos if 1 sample >0 (MUTZ-3 [1]; [6]): Non-sensitizer
CC=Cc1ccc(O)c(OC)c1 [Isoeugenol] |  |  |  |  | Rv90 (MUTZ-3 [2]; human): 300 µM
CC(O)C(=O)O (centres unmarked) [Lactic acid] |  | −1.20 | −0.81 | −0.89 | 
O=C=Nc1ccc(Cc2ccc(N=C=O)cc2)cc1 [Methylene diphenol diisocyanate] |  |  |  |  | Max solubility [3, 8]: 50 µM
CCCCCCCC(=O)O [Octanoic acid] | Non-sensitizer | −0.65 | −0.79 | −1.22 | 
Oc1ccccc1 [Phenol] | Non-sensitizer |  |  |  | 
O=C1OC(=O)c2ccccc21 [Phtalic Anhydride] |  | 0.20 | −0.12 |  | Classification Pos if 1 sample >0 (MUTZ-3 [1]; [6]): Sensitizer (classified as a respiratory sensitizer if any of replicate stimulations have a SVM decision value > 0); Max solubility ([3]; chemicals of the independent dataset (Table 2)): 200 µM; Max solubility [3, 8]: 200 µM
C1CNCCN1 [Piperazine] | Non-sensitizer | −0.05 | −0.12 |  | 
Oc1cccc(O)c1 [Resorcinol] | Non-sensitizer | −1.01 | −0.99 | −1.40 | 
O=C(O)c1ccccc1O [Salicylic acid] | Non-sensitizer | −0.73 | −1.08 | −1.13 | 
CCCCCCCCCCCCOS(=O)(=O)[O-].[Na+] [Sodium dodecyl sulphate] | Non-sensitizer | −1.49 | −0.80 | −1.30 | Rv90 (MUTZ-3 [2]; [5]): 200 µM
O=C(O)c1ccc(O)cc1 [p-hydroxybenzoic acid] | Non-sensitizer | −0.81 | −0.56 | −1.09 | 
Nc1ccc(N)cc1 [p-phenylenediamine] |  | −1.38 | −1.19 | −1.80 | Rv90 (MUTZ-3 [2]; [5]): 75 µM; Classification Pos if 1 sample >0 (MUTZ-3 [1]; [6]): Non-sensitizer
O=c1n(CC2CO2)c(=O)n(CC2CO2)c(=O)n1CC1CO1 (centres unmarked) [triglycidylisocyanurate] |  |  |  |  | Sensitization in humans (OA, ACD) [4]: cause both OA and ACD
